Assay results published in US20250388542A1, “ANALOGUES OF PENTAMIDINE AND USES THEREFOR” (Auransa Inc., priority 2018, published 2025).

Key:
Assay type in all cases: cell-based
[1] = test system: DU4475; assay: CellTiter-Glo cytotoxicity, cancer cell line panel / breast cancer study; conditions: DU4475, Breast carcinoma
Description: (§1) The objective of this study is to investigate potential cell killing effect of Compounds 1-15 on 3 cancer cell lines. 50% inhibition concentration (IC50) was determined for these compounds in various cancer cell lines using CellTiter-Glo™ luminescent cell viability assay at different compound concentrations. Each cell line (e.g., NCI-H209; NCI-H69; and SW1271) was treated with Compounds 1-15 and culture medium contains 0.2% [v/v] DMSO vehicle control. All the cells were cultured in the media supplemented with 10-20% fetal bovine serum at 37° C., 5% CO2 and 95% humidity.
(§2) The objective of this study is to investigate the effect of Compound 1 on cytotoxicity against 61 different types of cancer cell lines. IC50 were values were obtained using CellTiter-Glo™ as described above. Each cell line shown in Table 3 was treated with Compound 1, a standard chemotherapy drug, cisplatin, as reference control and culture medium contains 0.2% [v/v] DMSO vehicle control. All cancer cell lines were cultured in media supplemented with 10-20% fetal bovine serum at 37° C., 5% CO2 and 95% humidity.
(§3) The objective of this study is to investigate the effect of Compound 1 on cell viability of various types of breast cancer. Four different breast cancer cell lines were employed in the study. Each cell line shown in Table 5 was treated with Compound 1 and standard of care (cisplatin) and culture medium contains 0.2% [v/v] DMSO vehicle control and IC50 values were obtained as described above. The raw data values from the CellTiter-Glo™ cell viability assay expressed in relative luminescence units were normalized to the vehicle for each individual plate, and any reduction in luminescence indicated a decrease in viability (%). The data was analyzed in GraphPad PRISM using a non-linear sigmoidal plot with variable slope (asymmetric four-point linear regression), and an IC50 value for each compound was generated. The experiment tested pentamidine, compound 1, and standard-of-care control Cisplatin in full growth media for 8 days. Cells were initially treated with the test compounds on Day 0, and the cells were then replenished with fresh compound dilutions on Day 3. Pentamidine, Compound 1, and cisplatin were tested at 9 concentration points; 100, 33.33, 11.11, 3.70, 1.23, 0.41, 0.14, 0.05, and 0.02 μM (final DMSO concentration=0.5%).

[2] = test system: HCC1954; assay: as above; conditions: HCC1954, Ductal breast carcinoma
Description: as §1, §2, §3

[3] = test system: ZR-75-1; assay: as above; conditions: ZR-75-1, Invasive ductal carcinoma
Description: as §1, §2, §3

[4] = test system: Hep3B-luc; assay: CellTiter-Glo cell viability, liver cell lines, 8 days; conditions: full growth media
Description: (§4) The objective of this study is to investigate the effect of Compound 1 on cell viability of various types of liver cancer. Ten (10) different liver cancer cell lines were employed in the study. Each liver cell line shown in Table 4 was treated with Compound 1, pentamidine, as reference control, a standard of care (cisplatin) and culture medium contains 0.2% [v/v] DMSO vehicle control and IC50 values were obtained as described above. The raw data values from the CellTiter-Glo™ cell viability assay expressed in relative luminescence units were normalized to the vehicle for each individual plate, and any reduction in luminescence indicated a decrease in viability (%). The data was analyzed in GraphPad PRISM using a non-linear sigmoidal plot with variable slope (asymmetric four-point linear regression), and an IC50 value for each compound was generated. The experiment tested pentamidine, compound 1, and standard-of-care control Cisplatin in full growth media for 8 days. Cells were initially treated with the test compounds on Day 0, and the cells were then replenished with fresh compound dilutions on Day 3. Pentamidine, Compound 1, and cisplatin were tested at 9 concentration points; 100, 33.33, 11.11, 3.70, 1.23, 0.41, 0.14, 0.05, and 0.02 μM (final DMSO concentration=0.5%). In particular, the IC50 values of pentamidine and Compound 1 were 0.8 and 0.6 μM in Hep3B-luc, respectively.
The experiment tested pentamidine, Compound 1, and standard of care control, cisplatin, in full growth media for 8 days. Hep-3b cells were initially treated with the test compounds on Day 0, and the cells were then replenished with fresh compound dilutions on Day 3. […] The raw data values from the CellTiter-Glo™ cell viability assay expressed in relative luminescence units were normalized to the vehicle for each individual plate, and any reduction in luminescence indicated a decrease in viability (%). The data was analyzed in GraphPad PRISM using a non-linear sigmoidal plot with variable slope (asymmetric four-point linear regression), and an IC50 value for each compound was generated. […]

[5] = test system: HCCLM3; assay: as above; conditions: Homo sapiens, 192 h; HCCLM3, 8 days
Description: as §4

[6] = test system: HEP3B2.7-1; assay: as above; conditions: HEP3B2.7-1, Table 4
Description: as §4

[7] = test system: HUH1; assay: as above; conditions: Homo sapiens, HuH-1, 192 h; HUH1, 8 days
Description: as §4

[8] = test system: HUH7; assay: as above; conditions: Homo sapiens, Huh-7, 192 h; HUH7, 8 days
Description: as §4

[9] = test system: Hep3B; assay: as above; conditions: Homo sapiens, 192 h
Description: as §4

[10] = test system: HepG2; assay: as above; conditions: Homo sapiens, 192 h; HepG2, 8 days
Description: as §4

[11] = test system: MHCC97H; assay: as above; conditions: Homo sapiens, 192 h
Description: as §4

[12] = test system: SK-HEP-1; assay: as above; conditions: Homo sapiens
Description: as §4

SMILES	IC50 [1] [nM]	IC50 [2] [nM]	IC50 [3] [nM]	IC50 [4] [nM]	IC50 ([4]; Hep 3B-Luc, 192 h) [nM]	IC50 [5] [nM]	IC50 [6] [nM]	IC50 [7] [nM]	IC50 [8] [nM]	IC50 [9] [nM]	IC50 [10] [nM]	IC50 [11] [nM]	IC50 ([12]; SK-HEP1, SK-HEP-1, first listing in Table 4) [nM]	IC50 ([12]; SK-HEP1, SK-HEP-1, second listing in Table 4) [nM]
N.N.[Cl][Pt][Cl] [Cisplatin, cisplatin, reference compound]	600	770	1020	5100										
N=C(N)c1ccc(OCCCCCOc2ccc(C(=N)N)cc2)cc1 [Pentamidine, 1,5-bis(4-amidinophenoxy)pentane]					800	6900	280	1790	680	160	290	4260	1450	720
